Assay results as given in BindingDB's records for doi:10.1038/nchembio753 (Stanford University School of Medicine, 2006).

Molecular target: Sonic hedgehog protein (Mus musculus, UniProt Q62226)
Assay: Activation of Shh in mouse Shh Light2 cells after 30 hrs by luciferase reporter gene assay

Chain of Sonic hedgehog protein (Q62226 25-198 limits assumed): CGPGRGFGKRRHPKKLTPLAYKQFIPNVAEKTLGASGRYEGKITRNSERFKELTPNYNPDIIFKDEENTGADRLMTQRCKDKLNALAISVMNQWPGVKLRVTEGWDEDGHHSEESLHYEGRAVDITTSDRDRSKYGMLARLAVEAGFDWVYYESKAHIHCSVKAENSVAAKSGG

EC50: 1000 nM
SMILES: c1ccc2c(Oc3nc(Nc4ccc(N5CCOCC5)cc4)c4ncn(C5CCCCC5)c4n3)cccc2c1 [Purmorphamine]
